# Key:
# Hela cells [1] = assay: Hela cells pre-sensitized with cytokines, 4 Gy gamma radiation, WST-1 on day 5 (Experiments 7, 8, 11, 12, 13); type: cell-based
# Protocol: (§1) Hela cells were pre-sensitized for 2 days with each cytokine listed on FIG. 29. The pre-sensitized Hela cells were thereafter trypsinzed, washed, and irradiated with 4 Gy of gamma radiation. The irradiated cells were plated in 96-well plate at 5000 cells per well in 200 μl of complete medium. Cell viability was measured by WST-1 reagent on day 5.
# as §1, with “by individual cytokines, combinations or all cytokines.” for “with each cytokine listed on FIG. 29.”, “harvested,” for “trypsinzed,”, “RPMI 1640” for “complete”, “assay” for “reagent”
# Hela cells were pre-sensitized with various combinations of cytokines identified in FIG. 33. The pre-sensitized Hela cells were made single suspension and irradiated by 4 Gy of gamma radiation. The irradiated cells were plated in 96-well plate at 5000 cells per well in 200 μl RPMI 1640 medium. Cell viability was measured by WST-1 assay on day 5.
# Hela cells were pre-sensitized for 2 days with CD4+ T cells, a combination of [IFN-γ/TNF-α/IL-2/Il-6], or a combination of all cytokines. The pre-sensitized cells were thereafter placed into a single suspension and irradiated by 4 Gy of gamma radiation. The irradiated cells were plated in 96-well plate at 5000 cells per well in 200 μl RPMI 1640 medium. Cell viability was measured by WST-1 assay on day 5.
# Another experiment was performed similar to experiment 16, except that [IFN-γ/TNF-α] was used instead of the combination of [IFN-γ/TNF-α/Il-2/Il-6].
# Hela cells [2] = assay: Hela cells pre-sensitized with cytokines for 2 days, fresh medium 3 days, WST-1 on day 5 (Experiments 9, 10); type: cell-based; conditions: for effect on the maximum cytotoxic effect of IFN-γ: Experiment 9: in combination with IFN-γ
# Protocol: Hela cells were pre-sensitized with IFN-γ, and IFN-γ in combination with other cytokines for 2 days. The pre-sensitized Hela cells were then cultured with fresh complete RPMI 1640 for another 3 days. Cell viability was measured by WST-1 assay on day 5.
# The pre-sensitized Hela cells were cultured with fresh complete RPMI 1640 for another 3 days. Cell viability was measured by WST-1 assay on day 5.
molecule,measurement,setting,value
IFN-γ: cytokine,contribution to enhanced effect of gamma irradiation,"Hela cells [1]; Experiment 7: each cytokine 2 days, 4 Gy",major factor contributing to the enhanced effect of gamma irradiation
same,synergistic effect with gamma radiation,Hela cells [1]; Experiment 11: 4 Gy,Synergistic effect
GM-CSF: cytokine,effect on the maximum cytotoxic effect of IFN-γ,Hela cells [2],added effect
TNF-α,effect on the maximum cytotoxic effect of IFN-γ,Hela cells [2],added effect
"IFN-γ: cytokine (protein, UniProt P01579 24-161, looked up) Interferon gamma: QDPYVKEAENLKKYFNAGHSDVADNGTLFLGILKNWKEESDRKIMQSQIVSFYFKLFKNFKDDQSIQKSVETIKEDMNVKFFNSNKKKRDDFEKLTNYSVTDLNVQRKAIHELIQVMAELSPAAKTGKRKRSQMLFRG",contribution to cytotoxicity of gamma irradiation,"Hela cells [1]; Experiment 8: individual cytokines, combinations or all cytokines 2 days, 4 Gy",contributes to enhance cytotoxicity of gamma irradiation
same,contribution to cytotoxicity,"Hela cells [2]; Experiment 9: 2 days pre-sensitization, 3 days fresh medium",contributes to enhance cytotoxicity of gamma irradiation

# — US20100183542A1, “Synergism Between Activated Immune Cells and Conventional Cancer Therapies” (UNIVERSITY OF SOUTH ALABAMA, priority 2006, published 2010)
